Data reported in ChEMBL document CHEMBL1201862, “PubChem BioAssay data set” (2004).
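Results reflect a 48-hour exposure of cells in 96-well plates to compound at five concentrations. GI50 marks 50% less growth.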 The source made the active and inactive calls. No stated cut-off is given here; in the data, active = GI50 up to about 1.1 µM and inactive = higher. Peptide text beside a SMILES is read from it. * marks the point of attachment. Boc = CC(C)(C)OC(=O)*

Key:
Assay in all cases: DTP human tumour cell line panel, 48 h
RPMI-8226 = test system: RPMI-8226
A498 = test system: A498
SK-MEL-5 = test system: SK-MEL-5
HL-60 = test system: HL-60
U-251 = test system: U-251
SNB-19 = test system: SNB-19
SK-MEL-28 = test system: SK-MEL-28
NCI-H460 = test system: NCI-H460
IGROV-1 = test system: IGROV-1
HCT-116 = test system: HCT-116
UACC-62 = test system: UACC-62
MDA-MB-435 = test system: MDA-MB-435
CAKI-1 = test system: CAKI-1
HOP-62 = test system: HOP-62
OVCAR-5 = test system: OVCAR-5
OVCAR-8 = test system: OVCAR-8
K562 = test system: K562
SF-539 = test system: SF-539
UACC-257 = test system: UACC-257
KM12 = test system: KM12
EKVX = test system: EKVX
A549 = test system: A549
OVCAR-4 = test system: OVCAR-4
UO-31 = test system: UO-31
NCI-H226 = test system: NCI-H226
NCI-H23 = test system: NCI-H23
Malme-3M = test system: Malme-3M
PC-3 = test system: PC-3
HCT-15 = test system: HCT-15
HT-29 = test system: HT-29
RXF 393 = test system: RXF 393
SK-MEL-2 = test system: SK-MEL-2
786-0 = test system: 786-0
SNB-75 = test system: SNB-75
Hs-578T = test system: Hs-578T
SR = test system: SR
SF-295 = test system: SF-295
M14 = test system: M14
MCF7 = test system: MCF7
T47D = test system: T47D
OVCAR-3 = test system: OVCAR-3
MDA-MB-231 = test system: MDA-MB-231
MOLT-4 = test system: MOLT-4
BT-549 = test system: BT-549
DU-145 = test system: DU-145
SW-620 = test system: SW-620
HOP-92 = test system: HOP-92
LOX IMVI = test system: LOX IMVI
TK-10 = test system: TK-10
SF-268 = test system: SF-268
CCRF-CEM = test system: CCRF-CEM
COLO 205 = test system: COLO 205
SK-OV-3 = test system: SK-OV-3
ACHN = test system: ACHN
HCC 2998 = test system: HCC 2998
SN12C = test system: SN12C
NCI/ADR-RES = test system: NCI/ADR-RES
NCI-H522 = test system: NCI-H522
MDA-N = test system: MDA-N

## C=C(C)C(=O)O[C@H]1CC2(CO)O[C@@H]2CC/C(COC(C)=O)=C/C2OC(=O)C(=C)[C@@H]21 (stereo partly specified)
RPMI-8226
  GI50: 7.16 µM (inactive)
A498
  GI50: > 100 µM (inactive)
SK-MEL-5
  GI50: 28.3 µM (inactive)
HL-60
  GI50: 8.67 µM (inactive)
U-251
  GI50: > 100 µM (inactive)
SNB-19
  GI50: > 100 µM (inactive)
SK-MEL-28
  GI50: 23.6 µM (inactive)
NCI-H460
  GI50: > 100 µM (inactive)
IGROV-1
  GI50: > 64.6 µM (inactive)
HCT-116
  GI50: 18.2 µM (inactive)
UACC-62
  GI50: 39.5 µM (inactive)
MDA-MB-435
  GI50: 31.8 µM (inactive)
CAKI-1
  GI50: 28.8 µM (inactive)
HOP-62
  GI50: > 100 µM (inactive)
OVCAR-5
  GI50: > 100 µM (inactive)
OVCAR-8
  GI50: 22 µM (inactive)
K562
  GI50: 23.9 µM (inactive)
SF-539
  GI50: 74.8 µM (inactive)
UACC-257
  GI50: 20 µM (inactive)
KM12
  GI50: > 85.3 µM (inactive)
EKVX
  GI50: > 100 µM (inactive)
A549
  GI50: > 100 µM (inactive)
OVCAR-4
  GI50: 39.6 µM (inactive)
UO-31
  GI50: 22.5 µM (inactive)
NCI-H226
  GI50: > 46.1 µM (inactive)
NCI-H23
  GI50: 42.2 µM (inactive)
Malme-3M
  GI50: 23.4 µM (inactive)
PC-3
  GI50: 56.1 µM (inactive)
HCT-15
  GI50: 26.2 µM
HT-29
  GI50: 34.8 µM (inactive)
RXF 393
  GI50: 12.1 µM (inactive)
SK-MEL-2
  GI50: 52.4 µM (inactive)
786-0
  GI50: 20.2 µM (inactive)
SNB-75
  GI50: 59.7 µM (inactive)
Hs-578T
  GI50: > 92.5 µM (inactive)
SR
  GI50: 16.9 µM (inactive)
SF-295
  GI50: > 100 µM (inactive)
M14
  GI50: 21 µM (inactive)
MCF7
  GI50: 11.4 µM (inactive)
T47D
  GI50: 29.5 µM (inactive)
OVCAR-3
  GI50: 30.2 µM (inactive)
MDA-MB-231
  GI50: 61.4 µM (inactive)
MOLT-4
  GI50: 7.93 µM (inactive)
BT-549
  GI50: 21.8 µM (inactive)
DU-145
  GI50: > 96.6 µM (inactive)
SW-620
  GI50: 19.6 µM (inactive)
HOP-92
  GI50: 26.4 µM (inactive)
LOX IMVI
  GI50: 23.9 µM (inactive)
TK-10
  GI50: 25.4 µM (inactive)
SF-268
  GI50: > 100 µM (inactive)
CCRF-CEM
  GI50: 15.7 µM (inactive)
COLO 205
  GI50: 18.2 µM (inactive)
SK-OV-3
  GI50: > 100 µM (inactive)
ACHN
  GI50: 26.1 µM (inactive)
HCC 2998
  GI50: 44.6 µM (inactive)
SN12C
  GI50: 92 µM (inactive)
NCI/ADR-RES
  GI50: 45.6 µM (inactive)
NCI-H522
  GI50: 16.4 µM (inactive)

## COC(=O)C(Cc1c[nH]c2ccccc12)NC(=O)C(Cc1c[nH]c2ccccc12)NC(=O)C(Cc1c[nH]c2ccccc12)NC(=O)C(Cc1c[nH]c2ccccc12)NC(=O)C(Cc1c[nH]c2ccccc12)NC(=O)OC(C)(C)C (stereo unspecified) (Boc-WWWWW-OMe; configuration not given here)
RPMI-8226
  GI50: 26.2 µM (inactive)
SK-MEL-5
  GI50: 17.5 µM (inactive)
HL-60
  GI50: 33 µM (inactive)
U-251
  GI50: 65.9 µM (inactive)
SNB-19
  GI50: 39 µM (inactive)
SK-MEL-28
  GI50: 55.7 µM (inactive)
NCI-H460
  GI50: 84.1 µM (inactive)
IGROV-1
  GI50: 30 µM (inactive)
HCT-116
  GI50: 29.7 µM (inactive)
UACC-62
  GI50: 26.5 µM (inactive)
MDA-MB-435
  GI50: > 100 µM (inactive)
CAKI-1
  GI50: > 100 µM (inactive)
HOP-62
  GI50: > 100 µM (inactive)
OVCAR-5
  GI50: > 100 µM (inactive)
OVCAR-8
  GI50: > 100 µM (inactive)
K562
  GI50: 36.8 µM (inactive)
UACC-257
  GI50: > 100 µM (inactive)
A549
  GI50: 67 µM (inactive)
OVCAR-4
  GI50: > 100 µM (inactive)
UO-31
  GI50: 36.6 µM (inactive)
NCI-H226
  GI50: 42 µM (inactive)
NCI-H23
  GI50: 58.1 µM (inactive)
Malme-3M
  GI50: 94.2 µM (inactive)
PC-3
  GI50: > 100 µM (inactive)
HCT-15
  GI50: > 100 µM
HT-29
  GI50: > 100 µM (inactive)
SK-MEL-2
  GI50: 45.2 µM (inactive)
786-0
  GI50: 60 µM (inactive)
SNB-75
  GI50: 36.5 µM (inactive)
SR
  GI50: 32.4 µM (inactive)
M14
  GI50: 33.3 µM (inactive)
MCF7
  GI50: 84.1 µM (inactive)
T47D
  GI50: 10.7 µM (inactive)
OVCAR-3
  GI50: > 100 µM (inactive)
MDA-MB-231
  GI50: > 100 µM (inactive)
MOLT-4
  GI50: 19.6 µM (inactive)
BT-549
  GI50: 91.8 µM (inactive)
DU-145
  GI50: 33.4 µM (inactive)
SW-620
  GI50: > 100 µM (inactive)
LOX IMVI
  GI50: 67.6 µM (inactive)
TK-10
  GI50: > 100 µM (inactive)
SF-268
  GI50: 71 µM (inactive)
MDA-N
  GI50: 92 µM (inactive)
CCRF-CEM
  GI50: 74 µM (inactive)
ACHN
  GI50: 74 µM (inactive)
HCC 2998
  GI50: > 100 µM (inactive)
SN12C
  GI50: > 100 µM (inactive)
NCI-H522
  GI50: 46 µM (inactive)
